Experimental findings from patent publication US10393751B2, “Specific peptide binders to proteins identified via systematic discovery, maturation and extension process” (Roche […], Inc., priority 2015, dated 2019) are described below.

This test has as its target streptavidin (Streptomyces avidinii, UniProt P22629). As to the kind of experiment: Surface Plasmon Resonance (Biacore X100) of synthesized peptides on immobilized streptavidin. The class given is binding. As to conditions: for KD (equilibrium dissociation constant, kd/ka) / Kd / kon / koff: SPR; for kon: read-out: Ka (association rate constant); for koff: read-out: Kd (dissociation rate constant). From the text:
A selection of streptavidin peptide binders listed in Table 15 were synthesized using standard column-based synthesis techniques by UW Biotechnology center (Madison, Wis.) or by Peptide2.0 (Chantilly, Va.) at 98-99% purity. Strep-tag II peptide NH2-SAWSHPQFEK-COOH was purchased from IBA GmbH (Goettingen, Germany). Synthesized peptides were then characterized by Surface Plasmon Resonance (SPR) to identify binding characteristics including the association rate constant (ks), dissociation rate constant (kd), and equilibrium dissociation rate constant (kd/ka=KD). In one aspect, SPR experiments were performed by using Biacore X100 instrument (GE Healthcare). Preliminarily, 60 μl of 100 μg/ml streptavidin in 10 mM Na-acetate, pH5.0 was immobilized to flow cell 2 (Fc2) of a sensor chip CM5 (GE Healthcare) using Amine Coupling Kit (GE Healthcare) at 20° C. for 6 min. Peptide stock solutions were prepared at 5 or 10 mM concentration in water and diluted in HBS-EP+ (GE Healthcare) buffer before SPR experiments. Peptide binding was performed in a multiple kinetics mode using HBS-EP+ as a running buffer and 0.2 M NaCl, 10 mM NaOH or 10 mM HCl-glycine, […] as regeneration buffer. Binding kinetics parameters were calculated with Biacore X100 software.

Where [1] appears, read: streptavidin immobilized on CM5 chip, HBS-EP+ running buffer.
Where [2] appears, read: KD (equilibrium dissociation constant, kd/ka), streptavidin immobilized on CM5 chip, HBS-EP+ running buffer.
The mark [3] stands for this setting: KD of peptide-streptavidin complex, restated in text from Table 15.

Where only a bound is given, the exact number is not on record here.

streptavidin, sequence (P22629 25-183, species assumed): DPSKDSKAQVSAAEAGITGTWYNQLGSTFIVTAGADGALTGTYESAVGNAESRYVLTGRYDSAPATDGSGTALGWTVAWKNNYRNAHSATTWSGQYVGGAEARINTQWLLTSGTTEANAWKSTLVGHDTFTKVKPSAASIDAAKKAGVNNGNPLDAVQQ

For the substance GNSFDDWLASKG [NH2-GNSFDDWLASKG-amide], the “KD (equilibrium dissociation constant, kd/ka)” value under setting [1] is reported as “Irreversible”. Where the note is “result in words”, the “binding as compared with the parent peptide NSFDDWLAKGG” value is reported as “irreversible binding”.
Turning to H-ADYLAEYHGG-OH [NH2-ADYLAEYHGG-COOH], the Kd (usually the equilibrium constant for the complex coming apart) is 96 ± 5 µM under setting [2] and about 96 µM under setting [3].
“H-AFDYLAQYHGG-NH2 [NH2-AFDYLAQYHGG-amide]”: under setting [1], the kon turned out to be 23300 M⁻¹ s⁻¹ and the koff was determined as 0.0354 s⁻¹.
For “H-AFPDYLAEYHGG-NH2 [NH2-AFPDYLAEYHGG-amide]”, under setting [1], the “KD (equilibrium dissociation constant, kd/ka)” value came out at 0.043 µM; the kon turned out to be 30100 M⁻¹ s⁻¹; the koff amounted to 0.00128 s⁻¹. For the same substance, where the note is “result in words”, the “KD rank among the streptavidin peptide binders in Table 15” value was “lowest KD”.
For the substance H-DPAPAWAHGG-OH [NH2-DPAPAWAHGG-COOH], the Kd under setting [2] was over 500 µM.
Consider “H-EWVHPQFEQKAK-NH2 [NH2-EWVHPQFEQKAK-amide]”, for which, under “result in words”, the “KD as compared with the Strep-Tag II peptide (SEQ ID NO:233)” value is “decreased KD”.
Regarding “H-RDPAPAWAHGGG-NH2 [NH2-RDPAPAWAHGGG-amide]”, the Kd under setting [3] is about 4.66 µM. Also, under setting [1], the “KD (equilibrium dissociation constant, kd/ka)” value stood at 4.66 µM and the kon stood at 14900 M⁻¹ s⁻¹. Moreover, the “change in KD as compared with the parent peptide” value (parent peptide DPAPAWAHGG (SEQ ID NO:242)) was at least 100 fold.
For H-WTHPQFEQK-OH [NH2-WTHPQFEQK-COOH], under “result in words”, the “KD as compared with the Strep-Tag II peptide (SEQ ID NO:233)” value is given as “decreased KD”.
The same measure, in the same setting: under “H-WTHPQFEQPKA-NH2 [NH2-WTHPQFEQPKA-amide]” stands “decreased KD”.
